Assay: xn = mol fraction of the nth substance listed
Details: 100 kPa; for viscosity: x2 = 0

CC#N + C=C[n+]1ccn(CC(N)=O)c1.O=S(=O)([N-]S(=O)(=O)C(F)(F)F)C(F)(F)F
Details	viscosity [mPa·s]
298.15 K	0.344
303.15 K	0.324
308.15 K	0.308
313.15 K	0.293
318.15 K	0.277
328.15 K	0.246
333.15 K	0.219

O=S(=O)([N-]S(=O)(=O)C(F)(F)F)C(F)(F)F.[Li+] + CC#N
electrical conductivity [S/m]
Details	298.15 K	303.15 K	308.15 K	313.15 K	318.15 K	323.15 K	328.15 K	333.15 K
x1 = 0.0207	2.67	–	2.91	–	3.14	3.24	3.34	3.47
x1 = 0.0307	3.11	–	–	3.47	3.58	3.7	3.81	3.92
x1 = 0.0405	3.53	3.68	–	4.01	–	4.29	4.43	4.57
x1 = 0.0501	3.93	4.1	–	4.47	–	4.81	–	5.16
x1 = 0.0596	4.07	4.25	4.45	4.63	4.8	–	–	–
x1 = 0.0688	3.93	4.12	4.33	4.53	4.7	4.87	5.05	5.24
x1 = 0.0779	3.82	4.01	–	–	4.52	4.74	4.95	5.17
x1 = 0.0868	3.65	3.84	4.05	4.26	4.45	4.63	4.82	4.99
